Experimental data as given in patent publication US12427210B2, “Compounds comprising a fibroblast activation protein ligand and use thereof” (priority 2019, dated 2025).

Legend:
Matrix metalloprotease1 = molecular target: T1, Matrix metalloprotease1 (Homo sapiens, UniProt P03956); conditions: 1 μM
T1 sequence (P03956 100-469): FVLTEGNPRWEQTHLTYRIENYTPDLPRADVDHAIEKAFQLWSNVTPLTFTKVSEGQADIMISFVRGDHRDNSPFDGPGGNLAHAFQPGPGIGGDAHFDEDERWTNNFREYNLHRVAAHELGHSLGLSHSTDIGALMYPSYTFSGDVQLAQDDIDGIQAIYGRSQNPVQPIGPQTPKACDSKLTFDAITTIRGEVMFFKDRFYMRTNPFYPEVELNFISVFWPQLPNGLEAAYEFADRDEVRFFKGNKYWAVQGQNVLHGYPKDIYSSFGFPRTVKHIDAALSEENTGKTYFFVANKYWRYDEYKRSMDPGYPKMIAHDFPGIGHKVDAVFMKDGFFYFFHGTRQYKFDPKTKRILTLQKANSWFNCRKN

[1] = molecular target: T2, Matrix metalloprotease 9 (mutant Q279R) (Homo sapiens, UniProt P14780, Q279R); conditions: 100 nM
T2 sequence (P14780 94-707 Q279R): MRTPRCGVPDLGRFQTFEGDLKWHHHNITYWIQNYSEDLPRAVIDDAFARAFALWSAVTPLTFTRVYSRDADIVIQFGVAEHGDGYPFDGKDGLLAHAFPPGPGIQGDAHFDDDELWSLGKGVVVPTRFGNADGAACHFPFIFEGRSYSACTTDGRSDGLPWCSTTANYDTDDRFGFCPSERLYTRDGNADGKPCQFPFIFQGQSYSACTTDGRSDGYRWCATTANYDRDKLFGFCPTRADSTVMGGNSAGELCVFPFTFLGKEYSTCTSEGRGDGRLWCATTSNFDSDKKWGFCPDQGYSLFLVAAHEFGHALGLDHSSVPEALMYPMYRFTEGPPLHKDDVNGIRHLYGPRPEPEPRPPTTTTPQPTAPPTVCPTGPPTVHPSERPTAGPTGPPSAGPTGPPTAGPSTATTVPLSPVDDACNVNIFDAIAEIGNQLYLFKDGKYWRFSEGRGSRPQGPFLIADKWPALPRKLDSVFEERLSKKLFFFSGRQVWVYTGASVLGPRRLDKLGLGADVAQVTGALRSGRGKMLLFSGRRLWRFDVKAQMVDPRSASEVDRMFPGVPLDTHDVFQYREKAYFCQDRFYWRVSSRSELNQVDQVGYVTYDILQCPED

Matrix metalloprotease 2 = molecular target: T3, Matrix metalloprotease 2 (Homo sapiens, UniProt P08253); conditions: 100 nM
T3 sequence (P08253 110-660): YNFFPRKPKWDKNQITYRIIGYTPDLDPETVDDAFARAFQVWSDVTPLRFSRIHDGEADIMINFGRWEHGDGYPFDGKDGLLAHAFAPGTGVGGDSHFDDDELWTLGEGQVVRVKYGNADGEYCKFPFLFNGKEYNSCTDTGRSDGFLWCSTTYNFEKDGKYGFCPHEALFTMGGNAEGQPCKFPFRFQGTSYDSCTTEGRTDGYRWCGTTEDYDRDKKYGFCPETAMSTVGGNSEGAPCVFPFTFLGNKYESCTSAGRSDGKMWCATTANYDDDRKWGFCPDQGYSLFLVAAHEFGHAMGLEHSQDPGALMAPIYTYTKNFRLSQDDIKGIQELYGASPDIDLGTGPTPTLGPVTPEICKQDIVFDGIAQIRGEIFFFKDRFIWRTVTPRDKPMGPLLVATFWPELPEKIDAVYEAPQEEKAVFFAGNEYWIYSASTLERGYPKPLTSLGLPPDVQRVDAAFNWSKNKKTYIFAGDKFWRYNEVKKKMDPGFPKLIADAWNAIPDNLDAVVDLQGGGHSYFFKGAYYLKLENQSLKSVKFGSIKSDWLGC

COc1ccc(S(=O)(=O)N(CC(=O)NO)CC(C)C)cc1 [NNGH]
Percentage inhibition (%), Reference (Matrix metalloprotease1): 87% | Percentage inhibition (%), Reference [1]: 92% | Percentage inhibition (%), Reference (Matrix metalloprotease 2): 95%
